According to publication PMC10214531 (ACS Central Science, 2023):

What was measured:
Format in all cases: cell-based, human
[1] = test system: GLP-1R-mediated Gs activation, Gαs truncation of residues 2-10; experiment: G protein activation assay (BRET2 TRUPATH), Gαs truncated 2-10; settings: Gαs truncation of residues 2-10, vs WT, HEK-293T
Protocol: (§1) Cells were treated with 20 μL of each compound.
(§2) Significant difference is accepted at p < 0.05.

[2] = test system: GLP-1R alanine mutants; experiment: cAMP accumulation assay (GloSensor), alanine scan of 37 GLP-1R residues
[3] = test system: GLP-1R-mediated Gs activation, Gαs L394 and L393 substituted; experiment: G protein activation assay (BRET2 TRUPATH), Gαs double mutant L393 and L394; settings: Gαs L394 and L393 both substituted, vs WT; HEK-293T
Protocol: as §1, §2

[4] = test system: GLP-1R R344A; experiment: cAMP accumulation assay (GloSensor)
[5] = test system: GLP-1R Y250; experiment: G protein activation assay (BRET2 TRUPATH); settings: agonist GLP-1, HEK-293T, s.d.
Protocol: as §1, §2

[6] = test system: GLP-1R F169; experiment: G protein activation assay (BRET2 TRUPATH); settings: agonist GLP-1, HEK-293T, s.d.
Protocol: as §1, §2

[7] = test system: GLP-1R-mediated Gs activation, Gαs L394 to alanine; experiment: G protein activation assay (BRET2 TRUPATH), Gαs mutant L394 to alanine; settings: Gαs L394 replaced by alanine, vs WT; HEK-293T
Protocol: as §1, §2

[8] = test system: GLP-1R-mediated Gs activation, Gαs truncation of residues 2-8; experiment: G protein activation assay (BRET2 TRUPATH), Gαs truncated 2-8; settings: Gαs truncation of residues 2-8, vs WT, HEK-293T
Protocol: as §1, §2

[9] = test system: GLP-1R-mediated Gs activation, Gαs alanine mutants; experiment: G protein activation assay (BRET2 TRUPATH), alanine scan of 41 Gαs residues; settings: 16 of 41 Gαs alanine mutants, vs WT
Protocol: as §1, §2

[10] = test system: GLP-1R mutants of L172, C174, N177, Y250 and M340; experiment: cAMP accumulation assay, mutants of functional residues except F169; settings: mutants of six functional residues except F169; four independent experiments
From the text: The cDNA of human GLP-1R was cloned into vector pcDNA 3.1 or pRK. In the cAMP assay, the GLP-1R sequence comprises the native signal peptide (residues 1–23) and a FLAG tag. In flow cytometry analysis, the GLP-1R sequence contains the same native signal peptide, followed by a FLAG or HA tag. Mutations or deletions for the cAMP assay and flow cytometry were generated using seamless cloning with KOD-Plus-Neo (TOYOBO) and confirmed by DNA sequencing.
After overnight of culture, specified amounts of wild-type or mutant GLP-1R and 0.5 μg of pGloSensor cAMP plasmid were cotransfected into HEK-293T cells using calcium phosphate. After 24 h of culture, the transfected cells were seeded into 384-well plates (12 000 cells per well). cAMP accumulation was measured using the GloSensor cAMP assay kit (Promega) according to the manufacturer’s instructions. In brief, transfected cells were incubated for 30 min in GloSensor cAMP reagent at 37 °C and room temperature.
as §2

| Molecule | Gs protein activation mediated by GLP-1R [1] | GLP-1 potency in cAMP signaling induction ([2]; 18 of 37 GLP-1R alanine mutants, vs WT) | GLP-1 efficacy (cAMP) ([2]; two mutants with abnormal expression (gray columns in Figure 5b)) | GLP-1 activity in G protein dissociation [3] | EC50 ([4]; agonist GLP-1, HEK-293T, 15 min, 25 °C, surface expression 31±4.03 % WT) | Emax ([4]; agonist GLP-1, cAMP accumulation, HEK-293T) | Emax [5] | Emax [6] | GLP-1 efficacy in inducing G protein dissociation [7] | Gs protein activation mediated by GLP-1R [8] | GLP-1 efficacy in Gs activation [9] | cAMP signaling vs WT [10] |
| --- | --- | --- | --- | --- | --- | --- | --- | --- | --- | --- | --- | --- |
| CC[C@H](C)[C@H](NC(=O)[C@H](Cc1ccccc1)NC(=O)[C@H](CCC(=O)O)NC(=O)[C@H](CCCCN)NC(=O)[C@H](C)NC(=O)[C@H](C)NC(=O)[C@H](CCC(N)=O)NC(=O)CNC(=O)[C@H](CCC(=O)O)NC(=O)[C@H](CC(C)C)NC(=O)[C@H](Cc1ccc(O)cc1)NC(=O)[C@H](CO)NC(=O)[C@H](CO)NC(=O)[C@@H](NC(=O)[C@H](CC(=O)O)NC(=O)[C@H](CO)NC(=O)[C@@H](NC(=O)[C@H](Cc1ccccc1)NC(=O)[C@@H](NC(=O)CNC(=O)[C@H](CCC(=O)O)NC(=O)[C@H](C)NC(=O)[C@@H](N)Cc1c[nH]cn1)[C@@H](C)O)[C@@H](C)O)C(C)C)C(=O)N[C@@H](C)C(=O)N[C@@H](Cc1c[nH]c2ccccc12)C(=O)N[C@@H](CC(C)C)C(=O)N[C@H](C(=O)N[C@@H](CCCCN)C(=O)NCC(=O)N[C@@H](CCCNC(=N)N)C(N)=O)C(C)C [GLP-1] | significantly attenuated the Gs protein activation | significant reduction of GLP-1 potency in cAMP signaling induction for 18 mutants | deficient GLP-1 efficacy | completely abolished the GLP-1 activity | 0.0865 ± 0.0099 nM | 80±4 WT % | 13.84±2.59 % WT | 101.04±3.59 % WT | decrease in GLP-1 efficacy | significantly attenuated the Gs protein activation | significant reduction of GLP-1 efficacy in Gs activation for 16 mutants |  |
| N#Cc1ccc(COc2cccc(C3CCN(Cc4nc5ccc(C(=O)O)cc5n4C[C@@H]4CCO4)CC3)n2)c(F)c1 [PF 06882961] |  |  |  |  |  |  |  |  |  |  |  | attenuated cAMP signaling |
| exendin-4: another peptide agonist (exendin-4) |  |  |  |  |  |  |  |  |  |  |  | attenuated cAMP signaling |
